The values below come from patent US8557959B2, “Allele and isotope-specific intervention on MHC class II molecules associated with autoimmune diseases by means of peptides” (Merck Serono S.A., priority 2007, dated 2013).

One experiment has as its target T1, HLA-DR2b molecules (Homo sapiens, UniProt P01903+P01911).
T1 construct: made in house; host or cells: L cells co-transfected with HLA-DRA and HLA-DRB1*1501
The experiment in a line: competitive ELISA (dissociation-enhanced lanthanide fluoroimmunoassay) with biotinylated CLIP 97-120 as tracer on purified DR2b molecules. Format: binding. The text has this:
DR2b molecules were purified from L cells that had been co-transfected with HLA-DRA and HLA-DRB1*1501, by affinity chromatography using the HLA-DR-specific L243 antibody, as described in Weissert et al. (2001), MHC class II-regulated central nervous system autoaggression and T cell responses in peripheral lymphoid tissues are dissociated in myelin oligodendrocyte glycoprotein-induced experimental autoimmune encephalomyelitits, J. Immunol. 166, 7588-7599. The above publication is incorporated into the present application by reference. The binding assays were performed with a competitive ELISA based on a dissociation-enhanced lanthanide fluoroimmunoassay (Wallac, Turku, Finland). For the competitive ELISA, a 50 nM solution of DR2b molecules was incubated for 48 hours at 37° C. with 50 nM biotinylated CLIP 97-120 in the presence of 250 nM acetylated nonapeptide amide sublibrary or with various concentrations of competitor peptides ranging from 1 nM to 100 μM. The IC50 of a peptide was defined as the concentration of peptide that was required for a 50% inhibition of the binding of the tracer peptide. […]

Experiment [1] relates to 08073 T cell hybridoma co-incubated with HLA-DR2b-transfected L466 cells. The experiment can be described thus: blocking of MBP 85-99 induced IL-2 secretion by high-affinity ligands for DR2b. It counts as cell-based, mouse. As to conditions: 1 μg/ml MBP 85-99, 10 μg/ml peptide, 24 hours; FIG. 1. As for the experimental part: L466 cells and 08073 cells, which were transfected with HLA-DR2b, were co-incubated in the presence of 1 μg/ml MBP 85-99 and 10 μg/ml of various HLA-DR2b peptides; “kein Komp.”=no peptide according to the invention in the batch. After 24 hours the supernatant was collected and the amount of IL-2 present in the supernatant was measured in a mouse-specific IL-2-ELISA.
L466 cells and 08073 cells that were transfected with HLA-DR2b were co-incubated in the presence of 1 μg/ml MBP 85-99 and 10 μg/ml of the HuPb28-variants. After 24 hours the supernatant was collected and the amount of IL-2 present in the supernatant was measured using a mouse-specific IL-2-ELISA.
A T cell hybridoma (08073), which expresses the T cell receptor that is specific for MBP 85-99, which is presented by HLA-DR2b, was provided. After stimulation with MBP 85-99, presented by HLA-DR2b-transfected L466 cells, the 08073 cells secreted significant amounts of IL-2. 5×10^4 08073 cells were co-incubated for 24 hours with 5×10^4 HLA-DR2b-transfected L466 cells in RPMI medium (Invitrogen, Pailey, United Kingdom)/2% FCS (PAA, Linz, Austria)/100 U/ml penicillin, 100 μg/ml streptomycin, 2 mM glutamine (all from Invitrogen) in the presence of 1 μg/ml […] with or without high-affinity peptides (10 μg/ml). The amounts of IL-2 that were secreted in the supernatant were detected using a mouse-IL-2-specific ELISA (BD Biosciences Pharmingen, San Diego, Calif., United States of America).

The next experiment concerns HLA-DR2b-transgenic mice. The experiment in a line: MOG 35-55-induced EAE, co-immunization experiment. It counts as in vivo, mouse. As for the experimental part:
DR2b mice were immunized with the MOG 35-55 peptide in CFA (n=8) or co-immunized with MOG 35-55 and the HuPb11 peptide (SEQ ID No. 17) (n=8) or MOG 35-55 and HuPb28 peptide (SEQ ID No. 9) (n=9). Pertussis toxin (PTX) was administered i.p. on days 0 and 2. The mice were measured daily for EAE and weighed.
The following classifications were used: 0, no disease; 1, weakness or paralysis of the tail; 2, weakness of the hind legs; 3, paralysis of the hind legs; 4, paralysis of the front and hind legs; 5, moribund or death caused by disease.

[2] abbreviates: acetylated nonapeptide amides, 48 hours at 37° C., 50 nM DR2b, 50 nM biotinylated CLIP 97-120, read-out: IC50 for binding to HLA-DR2b molecules.

Like-named read-outs stand apart in the source and are kept apart here. Bounds are passed on as bounds.

As for Ac-MIDWYSSWP-NH2 [HuPb34, MIDWYSSWP], the IC50 (as a rule, the concentration at which inhibition is half-maximal) on HLA-DR2b molecules (setting [2]) came to 1 nM. Ac-PYEAQELHE-NH2 [HuPb14, PYEAQELHE]: at HLA-DR2b molecules (setting [2]), the concentration for half-maximal inhibition (IC50) is greater than 100000 nM. As to Ac-GPPERLEFR-NH2 [HuPb19, GPPERLEFR], the half-maximal inhibitory concentration (IC50) at HLA-DR2b molecules (setting [2]) was greater than 100000 nM. For the same substance, the “IL-2 secretion after stimulation of 08073 cells with MBP 85-99” value (“IL-2 secretion after stimulation” below) in experiment [1] was “did not show any effect”. Turning to Ac-KGESGFRDR-NH2 [HuPb17, KGESGFRDR], the IC50 at HLA-DR2b molecules is greater than 100000 nM. Also, the “IL-2 secretion after stimulation” value in experiment [1] was “did not show any effect”.

As for Ac-FILIYSNLF-NH2 [HuPb29, FILIYSNLF], the IC50 on HLA-DR2b molecules (setting [2]) was 2 nM. Regarding Ac-MIYWYSNWL-NH2 [HuPb30, MIYWYSNWL], at HLA-DR2b molecules (setting [2]), the 50% inhibitory concentration (IC50) was less than 1 nM. In experiment [1], the “IL-2 secretion after stimulation” value is listed as “only a slight reduction in IL-2 secretion”.

Turning to Ac-LILWYSSWP-NH2 [HuPb26, LILWYSSWP], at HLA-DR2b molecules (setting [2]), the IC50 worked out at 1 nM. Same read-out and setting: the value for Ac-WGLPEHLER-NH2 [HuPb11, WGLPEHLER] was greater than 100000 nM; that for Ac-MIYWYSSWD-NH2 [HuPb33, MIYWYSSWD] was 1 nM. Same read-out and setting: the value for Ac-LIYWYSSWL-NH2 [HuPb22, LIYWYSSWL] was 2 nM. Take Ac-LLYWYSSWP-NH2 [HuPb27, LLYWYSSWP]: the IC50 at HLA-DR2b molecules (setting [2]) was less than 1 nM. The “IL-2 secretion after stimulation” value in experiment [1] is “only a slight reduction in IL-2 secretion”. Ac-LILWYSSWL-NH2 [HuPb24, LILWYSSWL]: the IC50 at HLA-DR2b molecules (setting [2]) was 2 nM.

As for Ac-DIYWYSSWP-NH2 [HuPb32, DIYWYSSWP], the IC50 at HLA-DR2b molecules (setting [2]) was less than 1 nM. Also, in experiment [1], the “IL-2 secretion after stimulation” value was “significantly reduce IL-2 secretion”. In the case of Ac-LILYYYYYL-NH2 [HuPb23, LILYYYYYL], at HLA-DR2b molecules, the “affinity for HLA-DR2b in words” value is reported as “moderate affinity”. For Ac-MIYWYNSWL-NH2 [HuPb31, MIYWYNSWL], on HLA-DR2b molecules (setting [2]), the IC50 was less than 1 nM. Moreover, in experiment [1], the “IL-2 secretion after stimulation” value was “significantly reduce IL-2 secretion”.

For Ac-MIYWYSSWI-NH2 [HuPb21, MIYWYSSWI], the IC50 at HLA-DR2b molecules (setting [2]) worked out at 1 nM. Same read-out and setting: the value for Ac-MIYWYSSWL-NH2 [HuPb20, MIYWYSSWL] was 1 nM. On to Ac-MLIYYSSYL-NH2 [HuPb28, MLIYYSSYL], for which, at HLA-DR2b molecules (setting [2]), the 50% inhibitory concentration (IC50) was less than 1 nM. In experiment [1], the “IL-2 secretion after stimulation” value was “significantly reduce IL-2 secretion”. Besides, in the experiment on HLA-DR2b-transgenic mice (co-administration of 200 μg peptide with 300 μg MOG 35-55 in CFA at immunization), the “clinical EAE symptoms” value was “reduced the clinical EAE symptoms”. Besides, in the experiment on HLA-DR2b-transgenic mice (co-immunized with MOG 35-55 and peptide, n=9, p<0.05, FIG. 3), the EAE sum value result was “reduction in the sum value”.
